What is called inhibition is the relative decrease from the control value, in per cent. Broadly, the pKi is −log10 of the Ki, conventionally taken in molar units. Lower therefore signals a high Ki. What is called pIC50 is the IC50 on a negative log10 scale, so that one unit is a factor of ten.

pIC50, pKi: −log10 of the molar value.

Here are results for one molecule from ChEMBL document CHEMBL1159133, “A cembranolide diterpene farnesyl protein transferase inhibitor from the marine soft coral Lobophytum cristagalli” (Bioorg Med Chem Lett, 1996).

The target in assay [1] is T1, Protein farnesyltransferase (Homo sapiens, UniProt P49354+P49356). In words: Percent inhibition of H-Ras processing in COS cells at 5.3 uM. The format is cell-based.
The target of assay [2] is T1, Protein farnesyltransferase. In words: Kinetic parameter for inhibition of farnesyl protein transferase. The format is protein-complex assay.
For assay [3] the target is unchanged. In words: Inhibition of recombinant human farnesyl protein transferase. The format is protein-complex assay.
Assay [4] addresses Geranylgeranyl transferase type I (Homo sapiens, UniProt P49354+P53609). In words: Inhibitory activity against recombinant human Geranylgeranyl transferase type I. The format is protein-complex assay.

In turn, `C=C1C(=O)O[C@H]2[C@H]1[C@@H](OC(C)=O)C/C(C)=C/CC/C(C)=C/CC[C@@]1(C)O[C@H]21` had an inhibition in assay [1] of 26%. In assay [2], the pKi is 6.77. Besides, the figures for the pIC50 in assay [3] and in assay [4] were 6.82 and 5.28, respectively.
